From US20230320967A1, “COMPOSITION, USE OF THE COMPOSITION, COSMETIC METHOD FOR MODULATING THE PRODUCTION OF SEBUM” (CHEMYUNION LTDA., priority 2020, published 2023)
Peptide text beside a SMILES is read from it.

Key:
[1] = test system: skin oiliness (sebum) of female volunteers with mixed or oily skin; test: Clinical testing: face oiliness by sebum-metric index, Sebumeter SM 815; assay type: in vivo, human; conditions: 0.01% w/w in cosmetic base (BC-tripeptide), twice a day, 20 female volunteers
Procedure: For the clinical efficacy evaluation, the tripeptide (Glu-Val-Phe) was applied in a cosmetic base (BC) at a concentration of 0.01% (w/w) and compared to a placebo base, without active (Table 2).
The study was conducted with 20 female volunteers, between 18 and 50 years old, with mixed or oily skin, oily skin with a sebum-metric index above 100, who used the product (BC-placebo or BC-tripeptide) twice a day (morning and evening) for 28 days.
The participants were referred to the Instrumental Sector for acclimatizing for at least 20 minutes, in a room with controlled temperature and humidity (T=20±2° C. and RH=50±5%). After the acclimatizing period, sebum-metrics measurements were performed on the forehead. […]
The Sebumeter photometrically measures the increase in transparency of a special plastic strip that becomes translucent when coated with sebum. […] The strip is supported by a mirror which presses it against the skin of the region to be evaluated with a fixed pressure of 10N by means of a spring. […] The strip transparency is evaluated by a photocell present in the device where the plastic strip is inserted, and the light transmission represents the amount of sebum per area and the results are expressed in absolute values (μg sebum/cm^2). […]

SEBO662AR cell model [2] = test: Cytotoxicity in vitro (non-cytotoxic concentration); assay type: cell-based, human; conditions: SEBO662AR study
SEBO662AR cell model [3] = test: Sebum production inhibition in SEBO662AR sebocyte model, androgen-free lipogenic medium, Bodipy lipid droplet imaging; assay type: cell-based, human; conditions: 500 micromolar, comparable to cerulenin 10 micromolar
Procedure: Sebocytes are cells found in the sebaceous glands and that, in the differentiation process, accumulate lipid droplets in their interior. The SEBO662AR cell model is an immortalized lineage of human sebocytes that responds to lipogenic stimuli and that can be used to select potential sebum production inhibitors.
A sebum production inhibition study was conducted in the SEBO662AR cell model cultivated in androgen-free lipogenic medium, and the formation of droplets was monitored by using Bodipy® fluorescent probes and image analysis. As an inhibition reference, cerulenin was applied at a concentration of 10 micromolar—a fatty acid synthase inhibitor which, although effective in reducing sebum production, is a very labile molecule as it has unsaturations and an epoxy group in its structure, so that its use is restricted to laboratory testing.

For `CC(C)[C@H](NC(=O)[C@@H](N)CCC(=O)O)C(=O)N[C@@H](Cc1ccccc1)C(=O)O` [SEQ ID No. 1, H-Glu-Val-Phe-OH] (H-Glu-Val-Phe-OH), which “decrease of the average of the sebum-metric indices vs initial time (D0)” value ([1]; after 14 days) is on record?
Its value is 31.54%.

And the “reduction of average oiliness vs initial time (D0)” value ([1]; after 28 days)?
Its value is 29.75%.

And the higher non-cytotoxic concentration (SEBO662AR cell model [2])?
The higher non-cytotoxic concentration was 500 µM.

What about the “reduction in sebum production” value (SEBO662AR cell model [3]) of the same molecule?
Its value is 28%.
